In publication PMC6198280, “Chemical Instability and Promiscuity of Arylmethylidenepyrazolinone-Based MDMX Inhibitors” (ACS Chemical Biology, 2018):

Target: T1, MDMX (Homo sapiens, UniProt O15151)
T1 construct: gene MDM4
T1 sequence (O15151 1-120): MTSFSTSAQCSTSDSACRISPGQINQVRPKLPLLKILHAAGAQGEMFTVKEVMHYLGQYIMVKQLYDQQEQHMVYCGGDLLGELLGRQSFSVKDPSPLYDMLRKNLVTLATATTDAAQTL
Experiment: ITC; MALDI-TOF MS of covalent adducts, no reducing agent
Assay type: binding

Kd: > 13 µM
Compound: CCOc1cc(/C=C2\C(=O)N(c3ccccc3)N=C2C)cc(Cl)c1OCC(=O)OC [compound 1, SJ-172550]
